Assay [1] has as its system panel of 10 different non-fastidious bacteria growing aerobically. The experiment in a line: Activity against non-fastidious bacteria (panel, discussed in words). As to conditions: for activity against pathogenic Gram-positive bacteria (in words): Gram-positive non-fastidious bacteria, comparison with Licochalcone A. In kind it is cell-based.
In assay [2] the test system is Staphylococcus intermedius #2357 (clinical isolate from the Copenhagen area). The assay is described as follows: MIC determination in broth microdilution assay. In kind it is cell-based. Conditions: C: Staphylococcus intermedius #2357 clinical isolate; MH-broth microdilution.
Assay [3] relates to Enterococcus faecalis ATCC29212. The experiment in a line: MIC determination in broth microdilution assay. The format is cell-based. As to conditions: D: Enterococcus faecalis ATCC29212; MH-broth microdilution. On the technique in general: In broth dilution the organism is exposed to a series of concentrations in liquid medium.
The test system of assay [4] is Staphylococcus aureus ATCC29213. The assay is described as follows: MIC determination in broth microdilution assay. As to conditions: A: Staphylococcus aureus ATCC29213; MH-broth microdilution. The format is cell-based.
In assay [5] the test system is Streptococcus pneumoniae #998 (clinical isolate). The experiment in a line: MIC determination in broth microdilution assay. In kind it is cell-based. Conditions: F: Streptococcus pneumoniae #998 clinical isolate; MH-broth microdilution.
The subject of assay [6] is Enterococcus faecium #17501 (vancomycin-resistant clinical isolate). The experiment in a line: MIC determination in broth microdilution assay. The format is cell-based. As to conditions: E: Enterococcus faecium #17501 vancomycin-resistant clinical isolate; MH-broth microdilution.
In assay [7] the test system is Staphylococcus aureus ATCC33591 (resistant to methicillin). The assay is described as follows: MIC determination in broth microdilution assay. The format is cell-based. As to conditions: B: Staphylococcus aureus ATCC33591 (resistant to methicillin); MH-broth microdilution.
The test system of assay [8] is Eschericia coli ATCC25922. The assay is described as follows: MIC determination in broth microdilution assay. In kind it is cell-based. As to conditions: for MIC: G: Eschericia coli ATCC25922, MH-broth microdilution; for activity against Eschericia coli (in words): Gram-negative prototype, Table 1.
The next assay has as its system S. aureus E2371. The assay is described as follows: Killing curve determination (time-kill curve). In kind it is cell-based, Staphylococcus aureus. Conditions: for bactericidal activity (CFU counts per ml in time-kill curve): concentrations above the MIC; for dependence of the bactericidal action: time-kill curve.
Another assay deals with S. aureus ATCC29213. The assay is described as follows: Killing curve determination (time-kill curve). Conditions: for bactericidal activity (CFU counts per ml in time-kill curve): concentrations above the MIC; for dependence of the bactericidal action: time-kill curve. In kind it is cell-based, Staphylococcus aureus.

Converted amounts (≈) assume the structure as drawn. “Also recorded” adds a separate entry of the source.

This note sets out measurements from patent US20080027075A1, “Quaternary Amino-Function Chalcones” (Lica Pharmaceuticals A/S, priority 2003, published 2008).

For `COc1ccc(C(=O)/C=C/c2ccccc2)cc1` [4′-MC, 4′methoxy chalcone, reference compound], the “antibacterial effect (in words)” value in assay [1] (whole panel of non-fastidious bacteria) is recorded as “no antibacterial effect at all”.

As for `Cc1cc(C)cc(-c2ccc(OCC[N+](C)(C)C)c(/C=C/C(=O)c3ccc(N)cc3)c2)c1` [D-002, (2-{3-[3-(4-Amino-phenyl)-3-oxo-propenyl]-3′,5′-dimethyl-biphenyl-4-yloxy}-ethyl)-trimethyl-ammonium; iodide], the MIC (in general, the smallest concentration in the dilution series that meets the test's criterion for growth inhibition) amounted to 9.4 µM in assay [2]; 18.8 µM in assay [3]; 9.4 µM in assay [4]; 18.8 µM in assay [5]; 18.8 µM in [6]; 9.4 µM in assay [7]. In assay [8], the MIC was determined as 75 µM.

Consider `Cc1cc(C)cc(-c2ccc(OCC[N+](C)(C)C)c(/C=C/C(=O)c3ccccc3N)c2)c1.[I-]` [D-003, (2-{3-[3-(2-Amino-phenyl)-3-oxo-propenyl]-3′,5′-dimethyl-biphenyl-4-yloxy}-ethyl)-trimethyl-ammonium; iodide], for which the MIC in assay [2] was found to be 2.4 µM; in [3], 4.7 µM; in assay [4], 4.7 µM; in assay [5], 18.8 µM; in assay [6] it was 4.7 µM; in [7], 4.7 µM. It took 18.8 µM to inhibit growth in assay [8] (MIC). Moreover, the “bactericidal activity (CFU counts per ml in time-kill curve)” value with S. aureus E2371 is “bactericidal”. Moreover, the “dependence of the bactericidal action” value in the assay with S. aureus E2371 is “primarily dependent on the concentration of the test compound; also recorded: predominantly dependent on the concentration of the compound”. For the same compound, the “activity against Eschericia coli (in words)” value in assay [8] is “high activity”.

`COc1ccc(C(=O)/C=C/c2cc(-c3ccccc3OC)ccc2N2CC[N+](C)(C)CC2)c(F)c1` [D-004, 4-{3-[3-(2-Fluoro-4-methoxy-phenyl)-3-oxo-propenyl]-2′-methoxy-biphenyl-4-yl}-1,1-dimethyl-piperazin-1-ium]: the MIC came to 9.4 µM in [2]; 18.8 µM in assay [3]; 18.8 µM in [4]; 37.5 µM in assay [5]; 18.8 µM in [6]; 9.4 µM in assay [7]. Inhibition of growth in assay [8] (MIC) required 75 µM.

As for `CCCCN(CCCC)c1ccc(/C=C/C(=O)c2cccc(C[N+](C)(C)C)c2)cc1` [D-005, {3-[3-(4-Dibutylamino-phenyl)-acryloyl]-benzyl}-trimethyl-ammonium], in the assay on S. aureus ATCC29213, the “bactericidal activity (CFU counts per ml in time-kill curve)” value is listed as “bactericidal”. In addition, the “dependence of the bactericidal action” value in the assay on S. aureus ATCC29213 is “primarily dependent on the concentration of the test compound”. Besides, the MIC in [2] was 4.7 µM; in [3] it was 18.8 µM; in assay [4] it was 4.7 µM; in assay [5], 37.5 µM; in [6], 9.4 µM; in assay [7], 9.4 µM. In [8], this compound gave an MIC of 75 µM. Besides, the “activity against pathogenic Gram-positive bacteria (in words)” value in assay [1] is given as “increased potency”.

For the compound `C[N+](C)(C)CCOc1ccc(-c2ccccc2)cc1/C=C/C(=O)c1cccc(C[N+](C)(C)C)c1.[I-].[I-]` [D-006], the MIC is 18.8 µM in assay [2]; 75 µM in assay [3]; 18.8 µM in assay [4]; 150 µM in [5]; 37.5 µM in assay [6]; 18.8 µM in assay [7]. Moreover, the “bactericidal activity (CFU counts per ml in time-kill curve)” value in the assay with S. aureus E2371 was “bactericidal”. Also, the “dependence of the bactericidal action” value in the assay with S. aureus E2371 is recorded as “primarily dependent on the concentration of the test compound”.

On to `COc1ccc(C(=O)/C=C/c2cc(-c3cc(C)cc(C)c3)ccc2OCC[N+](C)(C)C)c(C[N+](C)(C)C)c1.[I-].[I-]` [D-007], for which, in the assay with S. aureus ATCC29213, the “bactericidal activity (CFU counts per ml in time-kill curve)” value is given as “bactericidal”. Further, the “dependence of the bactericidal action” value in the assay with S. aureus ATCC29213 was “primarily dependent on incubation time; also recorded: predominantly dependent on the time of incubation with the compound”. Besides, the MIC in assay [2] is 9.4 µM; in assay [3], 150 µM; in assay [4] it was 18.8 µM; in [5] it was 75 µM; in assay [6], 75 µM; in assay [7] it was 18.8 µM. This compound yielded an MIC in assay [8] of 75 µM.

Regarding `C=CC(C)(C)c1cc(/C=C/C(=O)c2ccc(O)cc2)c(OC)cc1O` [LicA, Licochalcone A], the MIC in assay [2] came to 37.5 µM (≈ 12.7 µg/mL); in assay [3], 37.5 µM (≈ 12.7 µg/mL); in assay [4], 37.5 µM (≈ 12.7 µg/mL); in assay [5], 75 µM (≈ 25.4 µg/mL); in assay [6] it was 37.5 µM (≈ 12.7 µg/mL); in assay [7], 37.5 µM (≈ 12.7 µg/mL). Moreover, the “activity against Eschericia coli (in words)” value in [8] is “only modest or no activity”. The “activity against pathogenic Gram-positive bacteria (in words)” value in assay [1] is on record as “moderate bactericidal activity”.

Take `COc1ccc(C(=O)/C=C/c2cc(-c3cc(C)cc(C)c3)ccc2OCCN(C)C)c(Cl)c1` [SM007, (E)-1-(2-Chloro-4-methoxy-phenyl)-3-[4-(2-dimethylamino-ethoxy)-3′,5′-dimethyl-biphenyl-3-yl]-propenone]: the MIC worked out at 4.7 µM (≈ 2.18 µg/mL) in assay [2]; 9.4 µM (≈ 4.36 µg/mL) in assay [3]; 4.7 µM (≈ 2.18 µg/mL) in assay [4]; 18.8 µM (≈ 8.72 µg/mL) in assay [5]; 4.7 µM (≈ 2.18 µg/mL) in assay [6]; 4.7 µM (≈ 2.18 µg/mL) in assay [7].

Turning to `Cc1cc(C)cc(-c2ccc(OCCN(C)C)c(/C=C/C(=O)c3ccc(N)cc3)c2)c1` [SM008, (E)-1-(4-Amino-phenyl)-3-[4-(2-dimethylamino-ethoxy)-3′,5′-dimethyl-biphenyl-3-yl]-propenone], the MIC was found to be 9.4 µM (≈ 3.9 µg/mL) in assay [2]; 18.8 µM (≈ 7.79 µg/mL) in assay [3]; 9.4 µM (≈ 3.9 µg/mL) in assay [4]; 18.8 µM (≈ 7.79 µg/mL) in assay [5]; 9.4 µM (≈ 3.9 µg/mL) in [6]; 9.4 µM (≈ 3.9 µg/mL) in assay [7].

For `Cc1cc(C)cc(-c2ccc(OCCN(C)C)c(/C=C/C(=O)c3ccccc3N)c2)c1` [SM009, (E)-1-(2-Amino-phenyl)-3-[4-(2-dimethylamino-ethoxy)-3′,5′-dimethyl-biphenyl-3-yl]-propenone], the MIC stood at 4.7 µM (≈ 1.95 µg/mL) in assay [2]; 9.4 µM (≈ 3.9 µg/mL) in [3]; 4.7 µM (≈ 1.95 µg/mL) in assay [4]; 18.8 µM (≈ 7.79 µg/mL) in assay [5]; 4.7 µM (≈ 1.95 µg/mL) in assay [6]; 4.7 µM (≈ 1.95 µg/mL) in assay [7].

For `COc1ccc(C(=O)/C=C/c2cc(-c3ccccc3OC)ccc2N2CCN(C)CC2)c(F)c1` [SM010, (E)-1-(2-Fluoro-4-methoxy-phenyl)-3-[2′-methoxy-4-(4-methyl-piperazin-1-yl)-biphenyl-3-yl]-propenone], the MIC in [2] is 9.4 µM (≈ 4.33 µg/mL); in [3], 18.8 µM (≈ 8.66 µg/mL); in [4] it was 4.7 µM (≈ 2.16 µg/mL); in assay [5], 37.5 µM (≈ 17.3 µg/mL); in [6], 9.4 µM (≈ 4.33 µg/mL); in assay [7] it was 9.4 µM (≈ 4.33 µg/mL).

Regarding `CCCCN(CCCC)c1ccc(/C=C/C(=O)c2cccc(CN(C)C)c2)cc1` [SM011, (E)-3-(4-Dibutylamino-phenyl)-1-(3-dimethylaminomethyl-phenyl)-propenone], the MIC in assay [2] is 9.4 µM (≈ 3.69 µg/mL); in [3], 9.4 µM (≈ 3.69 µg/mL); in [4], 9.4 µM (≈ 3.69 µg/mL); in [5] it was 18.8 µM (≈ 7.38 µg/mL); in assay [6] it was 9.4 µM (≈ 3.69 µg/mL); in assay [7] it was 9.4 µM (≈ 3.69 µg/mL).

Turning to `CN(C)CCOc1ccc(-c2ccccc2)cc1/C=C/C(=O)c1cccc(CN(C)C)c1` [SM012, (E)-3-[4-(2-Dimethylamino-ethoxy)-biphenyl-3-yl]-1-(3-dimethylaminomethyl-phenyl)-propenone], the minimum inhibitory concentration (MIC) in assay [2], in [3], in assay [4], in assay [5], in [6] and in assay [7] was 18.8 µM (≈ 8.06 µg/mL) each time. Further, the MIC in assay [8] was 37.5 µM (≈ 16.1 µg/mL).

Take `COc1ccc(C(=O)/C=C/c2cc(-c3cc(C)cc(C)c3)ccc2OCCN(C)C)c(CN(C)C)c1` [SM013, (E)-3-[4-(2-Dimethylamino-ethoxy)-3′,5′-dimethyl-biphenyl-3-yl]-1-(2-dimethylaminomethyl-4-methoxy-phenyl)-propenone]: the MIC in [2] was found to be 18.8 µM (≈ 9.15 µg/mL); in assay [3], 4.7 µM (≈ 2.29 µg/mL); in [4], 4.7 µM (≈ 2.29 µg/mL); in assay [5], 4.7 µM (≈ 2.29 µg/mL); in [6], 4.7 µM (≈ 2.29 µg/mL); in assay [7], 9.4 µM (≈ 4.57 µg/mL). In assay [8], this compound gave an MIC of 75 µM (≈ 36.5 µg/mL).
